Source: publication PMC12340637, “Transport of Small Aliphatic Amines by Polyspecific Solute Carriers: Deciphering Structure–Function Relationships” (ACS Pharmacology & Translational Science, 2025)
Marks after values point to notes of the source that are not given here.

Columns and labels:
OCT3 (SLC22A3) = biological target: T1, OCT3 (SLC22A3) (Homo sapiens, UniProt O75751); assay: Cellular uptake into OCT3-overexpressing HEK293 cells vs EV control cells (HPLC-MS/MS); settings: for uptake ratio OCT3 (transporter-overexpressing cells over EV control cells): mean (±SD, N): 2 min, HEK293
T1 sequence (O75751 1-556): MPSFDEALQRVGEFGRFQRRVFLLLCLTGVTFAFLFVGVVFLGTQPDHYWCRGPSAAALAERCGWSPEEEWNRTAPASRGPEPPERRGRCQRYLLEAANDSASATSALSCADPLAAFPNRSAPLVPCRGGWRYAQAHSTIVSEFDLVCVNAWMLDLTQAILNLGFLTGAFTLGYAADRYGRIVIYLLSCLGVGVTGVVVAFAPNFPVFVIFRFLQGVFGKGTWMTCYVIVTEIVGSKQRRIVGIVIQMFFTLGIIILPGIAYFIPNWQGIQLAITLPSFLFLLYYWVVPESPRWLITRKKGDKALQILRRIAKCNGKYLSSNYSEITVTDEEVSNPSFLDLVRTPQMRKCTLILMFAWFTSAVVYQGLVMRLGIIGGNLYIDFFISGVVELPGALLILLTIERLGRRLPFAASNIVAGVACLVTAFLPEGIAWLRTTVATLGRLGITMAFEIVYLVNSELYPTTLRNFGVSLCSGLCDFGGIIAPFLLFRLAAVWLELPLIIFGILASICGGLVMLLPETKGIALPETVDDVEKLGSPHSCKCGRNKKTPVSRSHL

OCT1 (SLC22A1) = biological target: T2, OCT1 (SLC22A1) (Homo sapiens, UniProt O15245); assay: Cellular uptake into OCT1-overexpressing HEK293 cells vs EV control cells (HPLC-MS/MS); settings: 2 min, HEK293
T2 sequence (O15245 1-554): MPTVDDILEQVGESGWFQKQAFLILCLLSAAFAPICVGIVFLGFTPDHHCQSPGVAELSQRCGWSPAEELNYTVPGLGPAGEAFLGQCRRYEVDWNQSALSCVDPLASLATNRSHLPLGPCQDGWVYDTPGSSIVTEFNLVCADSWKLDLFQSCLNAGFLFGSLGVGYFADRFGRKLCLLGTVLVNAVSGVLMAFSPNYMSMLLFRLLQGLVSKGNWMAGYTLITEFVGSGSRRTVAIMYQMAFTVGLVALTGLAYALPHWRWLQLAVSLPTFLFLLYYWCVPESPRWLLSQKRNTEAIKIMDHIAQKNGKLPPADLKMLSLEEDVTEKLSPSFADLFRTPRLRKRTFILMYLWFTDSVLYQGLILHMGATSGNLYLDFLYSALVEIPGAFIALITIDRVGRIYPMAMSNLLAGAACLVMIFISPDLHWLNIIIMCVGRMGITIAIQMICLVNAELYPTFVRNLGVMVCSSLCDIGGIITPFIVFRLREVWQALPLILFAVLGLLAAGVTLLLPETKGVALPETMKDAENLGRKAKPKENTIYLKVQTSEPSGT

MATE1 (SLC47A1) = biological target: T3, MATE1 (SLC47A1) (Homo sapiens, UniProt Q96FL8); assay: Cellular uptake into MATE1-overexpressing HEK293 cells vs EV control cells (HPLC-MS/MS); settings: 2.5 μM substrate, 1 min, 30 mM NH4Cl preincubation, HEK293
T3 sequence (Q96FL8 1-570): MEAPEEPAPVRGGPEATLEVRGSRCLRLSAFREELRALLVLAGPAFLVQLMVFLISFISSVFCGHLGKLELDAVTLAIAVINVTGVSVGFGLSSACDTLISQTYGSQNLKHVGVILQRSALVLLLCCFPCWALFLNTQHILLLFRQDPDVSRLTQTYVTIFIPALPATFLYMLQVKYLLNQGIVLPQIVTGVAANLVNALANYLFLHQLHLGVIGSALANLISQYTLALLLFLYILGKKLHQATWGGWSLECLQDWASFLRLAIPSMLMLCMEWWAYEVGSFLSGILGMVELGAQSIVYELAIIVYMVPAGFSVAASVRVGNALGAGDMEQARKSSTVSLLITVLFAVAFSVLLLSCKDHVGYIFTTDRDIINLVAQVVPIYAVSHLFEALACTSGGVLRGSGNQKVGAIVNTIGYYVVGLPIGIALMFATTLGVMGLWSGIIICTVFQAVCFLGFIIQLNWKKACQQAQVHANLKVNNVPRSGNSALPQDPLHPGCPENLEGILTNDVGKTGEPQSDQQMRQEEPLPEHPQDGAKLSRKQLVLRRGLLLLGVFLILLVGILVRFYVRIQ

OCT2 (SLC22A2) = biological target: T4, OCT2 (SLC22A2) (Homo sapiens, UniProt O15244); assay: Cellular uptake into OCT2-overexpressing HEK293 cells vs EV control cells (HPLC-MS/MS); settings: for uptake ratio OCT2 (transporter-overexpressing cells over EV control cells): mean (±SD, N): 2 min, HEK293
T4 sequence (O15244 1-555): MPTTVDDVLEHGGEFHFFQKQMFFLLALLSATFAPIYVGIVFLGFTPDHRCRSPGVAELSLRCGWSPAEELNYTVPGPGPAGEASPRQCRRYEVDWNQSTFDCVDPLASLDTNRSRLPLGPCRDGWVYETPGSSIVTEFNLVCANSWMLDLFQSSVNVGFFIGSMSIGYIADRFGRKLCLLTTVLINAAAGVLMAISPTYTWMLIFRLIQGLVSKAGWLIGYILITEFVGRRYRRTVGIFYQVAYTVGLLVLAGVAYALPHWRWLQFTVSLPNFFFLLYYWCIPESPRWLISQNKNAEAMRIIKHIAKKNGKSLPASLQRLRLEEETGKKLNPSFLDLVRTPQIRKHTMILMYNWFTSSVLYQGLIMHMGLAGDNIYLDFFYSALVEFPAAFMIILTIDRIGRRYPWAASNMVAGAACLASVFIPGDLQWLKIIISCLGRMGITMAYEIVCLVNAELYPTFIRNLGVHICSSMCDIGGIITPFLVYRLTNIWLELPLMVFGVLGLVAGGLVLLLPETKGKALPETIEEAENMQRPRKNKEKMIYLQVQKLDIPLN

MATE2-K (SLC47A2) = MATE2-K (SLC47A2) (Homo sapiens, UniProt Q86VL8); assay: Cellular uptake into MATE2-K-overexpressing HEK293 cells vs EV control cells (HPLC-MS/MS); settings: 2.5 μM substrate, 1 min, 30 mM NH4Cl preincubation, HEK293
[1] = OCT2, net uptake, Michaelis–Menten

Sequence of MATE2-K (SLC47A2) (Q86VL8 1-566 isoform Q86VL8-3): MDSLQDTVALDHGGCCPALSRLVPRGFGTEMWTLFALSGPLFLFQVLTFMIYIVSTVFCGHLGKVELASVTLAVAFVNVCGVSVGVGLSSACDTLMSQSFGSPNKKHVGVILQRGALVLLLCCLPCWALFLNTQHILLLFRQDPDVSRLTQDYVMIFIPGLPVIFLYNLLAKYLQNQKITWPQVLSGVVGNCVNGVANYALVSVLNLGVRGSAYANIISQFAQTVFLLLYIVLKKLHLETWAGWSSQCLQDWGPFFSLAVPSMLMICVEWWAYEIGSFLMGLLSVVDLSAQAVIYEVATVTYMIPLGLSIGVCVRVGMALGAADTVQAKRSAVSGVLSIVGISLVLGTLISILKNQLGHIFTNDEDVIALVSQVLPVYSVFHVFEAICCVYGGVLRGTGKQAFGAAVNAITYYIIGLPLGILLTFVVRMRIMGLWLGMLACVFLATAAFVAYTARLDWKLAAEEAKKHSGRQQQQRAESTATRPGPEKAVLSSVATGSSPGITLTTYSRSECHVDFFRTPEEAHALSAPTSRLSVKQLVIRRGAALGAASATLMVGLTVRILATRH

uptake ratio MATE1 (transporter-overexpressing cells over EV control cells): mean (±SD, N) (MATE1 (SLC47A1))	uptake ratio MATE2K (transporter-overexpressing cells over EV control cells): mean (±SD, N) (MATE2-K (SLC47A2))	uptake ratio OCT2 (transporter-overexpressing cells over EV control cells): mean (±SD, N) (OCT2 (SLC22A2); 10 μM substrate)	uptake ratio OCT3 (transporter-overexpressing cells over EV control cells): mean (±SD, N) (OCT3 (SLC22A3); 10 μM substrate)	Structure (SMILES)	other results
				C[C@H](N)CCO [(S)-3-aminobutan-1-ol]	stereoselectivity OCT3 (uptake ratio of the more strongly transported enantiomer divided by that of the other) (OCT3 (SLC22A3); label = favoured enantiomer): 1.2-fold for (S)
1.1 (0.2, 3)	1.0 (0.1, 3)			CC[C@H](C)[C@H](N)CO [(S)-(+)-isoleucinol]	uptake ratio OCT1 (transporter-overexpressing cells over EV control cells): mean (±SD, N) (OCT1 (SLC22A1); 2.5 μM substrate (§)): 1.0 (0.1, 4); uptake ratio OCT2 (transporter-overexpressing cells over EV control cells): mean (±SD, N) (OCT2 (SLC22A2); 2.5 μM substrate (§)): 7.6 (1.5, 4) ^b; K m (±SEM) (OCT2 (SLC22A2); [1]): 116 (±59) μM; v max (±SEM) (OCT2 (SLC22A2); [1]): 1303 (±287) pmol/mg protein/min; K m (±SEM) (OCT2 (SLC22A2); OCT2, net uptake, Michaelis–Menten, listed as isoleucinol): 116 µM; uptake ratio OCT3 (transporter-overexpressing cells over EV control cells): mean (±SD, N) (OCT3 (SLC22A3); 2.5 μM substrate (§)): 0.9 (0.1, 4)
0.5 (0.2, 3) ^a	0.8 (0.3, 3)	6.7 (3.2, 4) ^a	0.9 (0.3, 4)	CCCCCN [amylamine]	uptake ratio OCT1 (transporter-overexpressing cells over EV control cells): mean (±SD, N) (OCT1 (SLC22A1); 10 μM substrate): 1.2 (0.5, 4)
1.0 (0.1, 4)	1.2 (0.3, 4)	6.4 (2.0, 5) ^b	1.5 (1.0, 5)	CCCCN [butylamine]	
1.0 (0.4, 3)	0.8 (0.1, 3)			NCCCCNCCCN [spermidine-(butyl-d8)]	
1.3 (0.3, 3)	1.0 (0.2, 3)	3.8 (1.6, 4) ^a	1.3 (0.5, 3)	CC(C)(C)N [tert-butylamine]	
				NCCN(CCN)CCN [tris(2-aminoethyl)amine]	substrate activity at OCT3 (in words) (OCT3 (SLC22A3); uptake ratio ≥2 = notable transport): did not show any substrate activity

Structure (SMILES)	uptake ratio MATE1 (transporter-overexpressing cells over EV control cells): mean (±SD, N) (MATE1 (SLC47A1))	uptake ratio MATE2K (transporter-overexpressing cells over EV control cells): mean (±SD, N) (MATE2-K (SLC47A2))	uptake ratio OCT2 (transporter-overexpressing cells over EV control cells): mean (±SD, N) (OCT2 (SLC22A2); 10 μM substrate)	uptake ratio OCT3 (transporter-overexpressing cells over EV control cells): mean (±SD, N) (OCT3 (SLC22A3); 10 μM substrate)	other results
CC(C)N [isopropylamine]	1.4 (0.2, 3)		5.3 (1.7, 3) ^a	1.0 (0.2, 3)	uptake ratio OCT1 (transporter-overexpressing cells over EV control cells): mean (±SD, N) (OCT1 (SLC22A1); 10 μM substrate): 1.3 (0.2, 3)
